These results are taken from ChEMBL document CHEMBL1921727, “Stereoselective synthesis of (RP)-8-substituted-N⁶-acylated and N⁶-alkylated adenosine-3',5'-cyclic phosphorothioic acids as cAMP antagonists” (Eur J Med Chem, 2011).

Data set [1] is described as follows: Cytotoxicity against human CD3-positive T cells assessed as [H]thymidine incorporation after 72 hrs by beta scintillation counting. It counts as cell-based. The note with it: t-cell. For orientation: Dividing cells build labelled thymidine or BrdU into new DNA.
Data set [2] concerns T-cell. In words: Antagonist activity at PKA in human CD3-positive T cells assessed as inhibition of cell proliferation after 72 hrs by [H]thymidine incorporation assay. It counts as functional, cell-based.
In data set [3] the test system is T-cell. Kind of data set: Induction of PKA activation in human CD3-positive T cells assessed as increase of cell proliferation after 72 hrs by [H]thymidine incorporation assay. It counts as cell-based.
Data set [4] is described as follows: Antagonist activity at PKA in human CD3-positive T cells assessed as inhibition of cell proliferation after 72 hrs by [H]thymidine incorporation assay relative to (RP)-8-Br-cAMPS. It counts as functional.
Data set [5] relates to T-cell. Kind of data set: Induction of PKA activation in human CD3-positive T cells assessed as increase of cell proliferation after 72 hrs by [H]thymidine incorporation assay relative to (SP)-8-Br-cAMPS. It counts as cell-based.

Calls of active or inactive are those of the source. No cut-off for these calls is given here.

`CCCNc1ncnc2c1nc(-c1ccco1)n2[C@@H]1O[C@@H]2COP(=O)(S)O[C@H]2[C@H]1O` (stereo not given in full): in data set [1], the Activity entry was “Non-toxic”. Moreover, in data set [2], the “Inhibition of cell proliferation (active/not active)” value (from here on “Inhibition … (active/not active)”) was “Active”. Moreover, the result in data set [3] was Active. The Ratio in data set [4] stood at 0.24.
Turning to `CN(C)c1ncnc2c1nc(-c1ccco1)n2[C@@H]1O[C@@H]2COP(=O)([S-])O[C@H]2[C@H]1O.[Na+]` (stereo not given in full), in data set [1], the Activity result was “Non-toxic”. Further, the “Inhibition … (active/not active)” value in data set [2] was “inactive”. Further, in data set [3], the result was Active. Moreover, the Ratio in data set [4] came to 0.1.
On to `O=P1([S-])OC[C@H]2O[C@@H](n3c(-c4ccco4)nc4c(NCc5ccccc5)ncnc43)[C@H](O)[C@@H]2O1.[Na+]` (stereo not given in full), for which, in data set [1], the Activity entry is “Non-toxic”. In addition, in data set [5], the Ratio amounted to 0.99. Also, the “Inhibition … (active/not active)” value in data set [2] was “inactive”. In addition, the outcome in data set [3] was inactive.
For the compound `CCCCNc1ncnc2c1nc(-c1ccco1)n2[C@@H]1O[C@@H]2COP(=O)(S)O[C@H]2[C@H]1O` (stereo not given in full), the Activity result in data set [1] is “Non-toxic”. The “Inhibition … (active/not active)” value in data set [2] was “Active”. In addition, the result in data set [3] was Active. Further, in data set [4], the Ratio was found to be 0.53.
As to `CNc1ncnc2c1nc(-c1ccco1)n2[C@@H]1O[C@@H]2COP(=O)([S-])O[C@H]2[C@H]1O.[Na+]` (stereo not given in full), the Activity entry in data set [1] is given as “Non-toxic”. Further, the “Inhibition … (active/not active)” value in data set [2] was “Active”. Further, in data set [3], the outcome was Active. In addition, the Ratio in data set [4] amounted to 0.2.
